# Results from patent US10774071B2, “PD-1/PD-L1 inhibitors” (Gilead Sciences, Inc., priority 2018, dated 2020).
# Where two headings read alike, the source gives them in different places.
# Tests used:
# PD-L1 = PD-L1 (Homo sapiens (Human), UniProt Q9NZQ7); assay: PD-L1/PD-L1 dimerization biochemical protein-protein interaction assay (ALPHA); type: binding; details: read-out: AC50 PDL1 Dimer 1 nM
# PD-1/PD-L1 = PD-1/PD-L1 (Homo sapiens (Human), UniProt Q9NZQ7); assay: PD-1/PD-L1 biochemical protein-protein interaction assay (ALPHA); type: binding; details: read-out: IC50 PD-L1-PD1
# Sequence of PD-1/PD-L1 (Q9NZQ7 19-238): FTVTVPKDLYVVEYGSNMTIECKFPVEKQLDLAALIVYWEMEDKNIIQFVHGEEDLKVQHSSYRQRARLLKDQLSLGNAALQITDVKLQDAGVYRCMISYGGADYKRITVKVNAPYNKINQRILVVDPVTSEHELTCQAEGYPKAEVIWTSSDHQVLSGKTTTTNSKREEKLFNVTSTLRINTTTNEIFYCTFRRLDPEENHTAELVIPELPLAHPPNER
# [1] = 0.5 nM His tagged PD-L1 and 0.5 nM FLAG tagged PD-L1, Table 4B
# [2] = 0.3 nM His tagged PD-L1, 2.5 nM biotinylated Fc-PD-1, Table 3B
# [3] = 0.5 nM His tagged PD-L1 and 0.5 nM FLAG tagged PD-L1, Table 4A
# [4] = 0.3 nM His tagged PD-L1, 2.5 nM biotinylated Fc-PD-1, readings of 0.064 nM are equal to or less than 0.064 nM
# Sequence of PD-L1 (Q9NZQ7 19-238): as above
# Sequence of PD-L1 (Q9NZQ7 19-238): as above
AC50 (PD-L1; [1]) [nM],IC50 (PD-1/PD-L1; [2]) [nM],AC50 (PD-L1; [3]) [nM],IC50 (PD-1/PD-L1; [4]) [nM],SMILES
14,0.064,,,COc1nc(-c2cccc(-c3cccc4c3CC[C@@H]4Oc3nc(OC)c(CNC4(C(=O)O)CC4)cc3C)c2Cl)ccc1CNC[C@@H]1CCC(=O)N1 [B-246]
18.9,0.064,,,COc1nc(-c2cccc(-c3cccc4c3CC[C@@H]4Oc3nc(OC)c(CN4CC5CCCC4(C(=O)O)C5)cc3Cl)c2Cl)ccc1CNC[C@@H]1CCC(=O)N1 (stereo partly drawn) [B-181]
19,0.064,,,COc1nc(-c2cccc(-c3cccc4c3CC[C@@H]4Oc3nc(OC)c(CN4CC5(C(=O)O)CCC4CC5)nc3Cl)c2Cl)ccc1CNC[C@@H]1CCC(=O)N1 [B-153]
,,10.7,≤ 0.064,COc1nc(-c2cccc(-c3cccc4c3CC[C@@H]4Nc3nc(OC)c(CNCC(=O)O)nc3C(F)(F)F)c2Cl)ccc1CNC[C@H]1C[C@H](O)C1 [A-49]
9.7,0.064,,,COc1nc(-c2cccc(-c3cccc4c3CC[C@@H]4Oc3nc(OC)c(CNC4(C(=O)O)CC4)cc3C(F)(F)F)c2Cl)ccc1CNC[C@@H]1CC(O)C(=O)N1 (stereo partly drawn) [B-204]
0.813,0.064,,,COc1cc(-c2cccc(-c3cccc4c3CC[C@@H]4Oc3nc(OC)c(CN4CC[C@@H]5C[C@@]54C(=O)O)cc3C(F)(F)F)c2Cl)ccc1CNC[C@@H]1CCC(=O)N1 [B-117]
8.98,0.064,,,COc1nc(-c2cccc(-c3cccc4c3CC[C@@H]4Oc3nc(OC)c(CN4CC5(CC5)C[C@H]4C(=O)O)cc3C(F)(F)F)c2Cl)ccc1CNC[C@@H]1CCC(=O)N1 [B-144]
,,8.26,≤ 0.064,COc1nc(-c2cccc(-c3cccc4c3CC[C@@H]4Nc3nc(OC)c(CN(C)CC(=O)O)nc3C(F)(F)F)c2Cl)ccc1CNC[C@@H]1CCC(=O)N1 [A-34]
,,6.26,≤ 0.064,COc1cc(N[C@H]2CCc3c(-c4cccc(-c5ccc(CNC[C@@H]6CCC(=O)N6)c(OC)n5)c4Cl)cccc32)c(C(F)(F)F)nc1CNC1(C(=O)O)CC1 [A-37]
1.12,0.064,,,COc1nc(-c2cccc(-c3cccc4c3CC[C@@H]4Oc3nc(OC)c(CNC(C)(C)C(=O)O)cc3C(F)(F)F)c2Cl)ccc1CNC[C@@H]1CCC(=O)N1 [B-12]
26.4,0.064,,,CNC(=O)C1CCN(Cc2cc(Cl)c(O[C@H]3CCc4c(-c5cccc(-c6ccc(CNC[C@@H]7CCC(=O)N7)c(OC)n6)c5Cl)cccc43)nc2OC)C1 (stereo partly drawn) [B-88]
34.9,0.064,,,COc1nc(-c2cccc(-c3cccc4c3CC[C@@H]4Oc3nc(OC)c(CN4CCC[C@]4(C)C(=O)O)cc3C)c2Cl)ccc1CNC[C@@H]1CCC(=O)N1 [B-238]
20.1,0.064,,,COc1nc(-c2cccc(-c3cc(F)cc4c3CC[C@@H]4Oc3nc(OC)c(CN4CC5(C(=O)O)CCC4CC5)cc3C(F)(F)F)c2Cl)ccc1CNC[C@@H]1CCC(=O)N1 [B-216]
1.91,0.064,,,COc1nc(-c2cccc(-c3cccc4c3CC[C@@H]4Oc3nc(OC)c(CN[C@@H](C)C(=O)O)cc3C(F)(F)F)c2Cl)ccc1CNC[C@@H]1CCC(=O)N1 [B-271]
24.6,0.064,,,COc1cc(O[C@H]2CCc3c(-c4cccc(-c5ccc(CNC[C@@H]6CCC(=O)N6)c(OC)n5)c4Cl)cccc32)c(C(F)(F)F)cc1CN1CC[C@H](C(=O)O)C1 [B-165]
12.5,0.064,,,COc1nc(-c2cccc(-c3cccc4c3CC[C@@H]4Oc3nc(OC)c(CN4C[C@H]5C[C@]4(C(=O)O)[C@H]5C)cc3Cl)c2Cl)ccc1CNC[C@@H]1CCC(=O)N1 [B-180]
9.33,0.064,,,COc1nc(O[C@H]2CCc3c(-c4cccc(-c5ccc(CNC[C@@H]6CCC(=O)N6)c(OCC#N)n5)c4Cl)cccc32)c(Cl)cc1CN1CC[C@@H](C(=O)O)C1 [B-19]
,,15.3,≤ 0.064,COc1nc(-c2cccc(-c3cccc4c3CC[C@@H]4Nc3nc(OC)c(CN4CCCC[C@@]4(C)C(=O)O)cc3C(F)(F)F)c2Cl)ccc1CN1CC(C)(O)C1 [A-52]
17.5,0.064,,,COc1cc(O[C@H]2CCc3c(-c4cccc(-c5ccc(CNC[C@@H]6CCC(=O)N6)c(OC)n5)c4Cl)cccc32)c(C(F)(F)F)cc1CNCC(C)(C)C(=O)O [B-221]
21.3,0.064,,,COc1nc(-c2cccc(-c3cccc4c3CC[C@@H]4Oc3nc(OC)c(CNCC(=O)O)cc3C)c2Cl)ccc1CNC[C@@H]1CCC(=O)N1 [B-239]
31.9,0.064,,,COc1nc(-c2cccc(-c3cccc4c3CC[C@@H]4Oc3nc(OC)c(CN4CC(C(=O)O)C5(CCOC5)C4)cc3Cl)c2Cl)ccc1CNC[C@@H]1CCC(=O)N1 (stereo partly drawn) [B-70]
,,9.38,≤ 0.064,COc1nc(-c2cccc(-c3cccc4c3CC[C@@H]4Nc3nc(OC)c(CN4CCC5CC4(C(=O)O)C5)cc3C(F)(F)F)c2Cl)ccc1CN[C@H]1C[C@](C)(O)C1 [A-58]
,,15.7,≤ 0.064,COc1nc(-c2cccc(-c3cccc4c3CC[C@@H]4Nc3nc(OC)c(CNCC(=O)O)nc3C(F)(F)F)c2Cl)ccc1CN1CC(O)C1 [A-73]

AC50 (PD-L1; [1]) [nM],IC50 (PD-1/PD-L1; [2]) [nM],AC50 (PD-L1; [3]) [nM],IC50 (PD-1/PD-L1; [4]) [nM],SMILES
58.3,0.158,,,COc1nc(-c2cccc(-c3cccc4c3CC[C@@H]4Oc3nc(OCc4cc(F)cc(C#N)c4)c(CN4CC5(C(=O)O)CCC4CC5)cc3Cl)c2Cl)ccc1CNC[C@@H]1CCC(=O)N1 [B-30]
0.518,0.064,,,COc1nc(-c2cccc(-c3cccc4c3CC[C@@H]4Oc3nc(OC)c(CN4CCC5CC4(C(=O)O)C5)cc3C(F)(F)F)c2Cl)ccc1CNC[C@@H]1CCC(=O)N1 [B-233]
54.3,0.111,,,COc1nc(-c2cccc(-c3cccc4c3CC[C@@H]4Oc3nc(OC)c(CN4CC5CCC4C(C(=O)O)C5)cc3Cl)c2Cl)ccc1CNC[C@@H]1CCC(=O)N1 (stereo partly drawn) [B-98]
156,0.064,,,COc1nc(O[C@H]2CCc3c(-c4cccc(-c5cnc(CNC[C@@H]6CCC(=O)N6)c(OC)n5)c4C#N)cccc32)c(Cl)cc1CN1CC[C@@H](C(=O)O)C1 [B-69]
10.4,0.064,,,COc1nc(-c2cccc(-c3cccc4c3CC[C@@H]4Oc3nc(OC)c(CNC4(C(=O)O)CC4)nc3C(F)(F)F)c2Cl)ccc1CNC[C@@H]1CCC(=O)N1 [B-247]
17.8,0.064,,,COc1nc(-c2cccc(-c3cccc4c3CC[C@@H]4Oc3nc(OC)c(CN4CCC(C)(C)C(C(=O)O)C4)cc3Cl)c2Cl)ccc1CNC[C@@H]1CCC(=O)N1 (stereo partly drawn) [B-25]
2.26,0.064,,,COc1nc(-c2cccc(-c3cccc4c3CC[C@@H]4Oc3nc(OC)c(CNCC(=O)O)cc3C(F)(F)F)c2Cl)ccc1CNC[C@@H]1CCC(=O)N1 [B-272]
2.76,0.064,,,COc1nc(-c2cccc(-c3cccc4c3CC[C@@H]4Oc3nc(OC)c(CN4CCCC[C@@]4(C)C(=O)O)cc3C(F)(F)F)c2Cl)ccc1CNC[C@@H]1CCC(=O)N1 [B-135]
,,13.2,≤ 0.064,COc1nc(-c2cccc(-c3cccc4c3CC[C@@H]4Nc3nc(OC)c(CN(C)CC(=O)O)cc3C(F)(F)F)c2Cl)ccc1CNC[C@@H]1CCC(=O)N1 [A-35]
,,7.18,≤ 0.064,COc1nc(-c2cccc(-c3cccc4c3CC[C@@H]4Nc3nc(OC)c(CNCC(=O)O)nc3C(F)(F)F)c2Cl)ccc1CNC[C@@H]1CC(O)C(=O)N1 (stereo partly drawn) [A-46]
22.3,0.111,,,COc1nc(O[C@H]2CCc3c(-c4cccc(-c5cnc(CNC[C@@H]6CCC(=O)N6)c(OC)n5)c4Cl)cccc32)c(Cl)cc1CNC1CC(NC(C)=O)C1 (stereo partly drawn) [B-34]
66.5,0.08,,,COc1nc(O[C@H]2CCc3c(-c4cccc(-c5cc(C)c(CN6CC(C)(O)C6)c(OC)n5)c4Cl)cccc32)c(Cl)cc1CN1CC2(C(=O)O)CCC1CC2 [B-57]
5.12,0.064,,,COc1nc(-c2cccc(-c3cccc4c3CC[C@@H]4Oc3nc(OC)c(CN4CC5CC4(C(=O)O)C5)cc3C(F)(F)F)c2Cl)ccc1CNC[C@@H]1CCC(=O)N1 [B-145]
297,0.41,,,COc1nc(-c2cccc(-c3cccc4c3CC[C@@H]4Oc3nc4c(nc3Cl)c(CN3CC5(CNC(=O)C5)C3)nn4C)c2Cl)ccc1CNC[C@@H]1CCC(=O)N1 [B-146]
,,6.64,≤ 0.064,COc1cc(-c2cccc(-c3cccc4c3CC[C@@H]4Nc3nc(OC)c(CNCC(=O)O)nc3C(F)(F)F)c2Cl)ccc1CNC1CC(O)(CF)C1 (stereo partly drawn) [A-108]
,,48.8,0.065,COc1cc(N[C@H]2CCc3c(-c4cccc(-c5ccc(CNC[C@@H]6CCC(=O)N6)c(OC)n5)c4Cl)cccc32)c(Cl)cc1CN1CC2(C(=O)O)CCC1CC2 [A-13]
134,0.082,,,COc1nc(-c2cccc(-c3cccc4c3CC[C@@H]4Oc3nc(OC)c(CN4CC[C@@H](C(=O)N=S(C)(=O)NC(=O)C(F)(F)F)C4)cc3Cl)c2Cl)ccc1CNC[C@@H]1CCC(=O)N1 (stereo partly drawn) [B-162]
,,10.6,≤ 0.064,COc1cc(N[C@H]2CCc3c(-c4cccc(-c5ccc(CNC[C@@H]6CCC(=O)N6)c(OC)n5)c4Cl)cccc32)c(C(F)(F)F)nc1CN [A-44]
46.4,0.095,,,COc1nc(-c2cccc(-c3cccc4c3CC[C@@H]4Oc3nc(OC)c(CN4CC5(C(=O)O)CCC4CC5)cc3Cl)c2Cl)ccc1CN[C@@H]1CCC[C@@H]1O [B-52]
,,113,≤ 0.064,COc1nc(-c2cccc(-c3cccc4c3CC[C@@H]4Nc3nc(OC)c(CN4CC5(C(=O)O)CCC4CC5)cc3Cl)c2Cl)ccc1CNC[C@@H]1CCC(=O)N1 [A-5]
11.2,0.064,,,COc1nc(-c2cccc(-c3cccc4c3CC[C@@H]4Oc3nc(OC)c(CNCCC(=O)O)cc3Cl)c2Cl)ccc1CNC[C@@H]1CCC(=O)N1 [B-27]
11.7,0.064,,,COc1nc(-c2cccc(-c3cccc4c3CC[C@@H]4Oc3nc(OC)c(CN4CC5(C(=O)O)CCC4CC5)cc3C(F)(F)F)c2Cl)ccc1CNC[C@H]1C[C@](C)(O)C1 [B-209]
